Assay results as given in US6753345B2, “7-hexanolytaxol and methods for preparing the same” (Hauser, Inc., priority 1998, dated 2004).
Converted amounts (≈) assume the structure as drawn. Like-named read-outs stand apart in the source and are kept apart here.

Legend:
[1] = tested on: 26 cell lines; experiment: 26 cell line growth inhibition screen, sulforhodamine stain; type: cell-based; details: 26 cell lines, 48 hour drug treatment, sulforhodamine stain
[2] = tested on: HL-60(TB); details: HL-60(TB) (Leukemia); PG=0; 48 hour incubation
[3] = tested on: LOX-IMVI; details: LOX-IMVI (Melanoma); PG=0; 48 hour incubation
[4] = tested on: HL-60(TB); experiment: cells; details: Homo sapiens, HL-60, 48 h, read-out: Log10 GI50 (converted)
[5] = tested on: CCRF-CEM; experiment: SRB cytotoxicity screening assay (Leukemia); details: for Log10 TGI: CCRF-CEM (Leukemia), PG=0, 48 hour incubation
[6] = tested on: OVCAR-4; experiment: SRB cytotoxicity screening assay (Ovarian)
[7] = tested on: MOLT-4; experiment: SRB cytotoxicity screening assay (Leukemia)
[8] = tested on: MALME-3M; experiment: SRB cytotoxicity screening assay (Melanoma); details: MALME-3M (Melanoma); PG=0; 48 hour incubation
[9] = tested on: M14; experiment: SRB cytotoxicity screening assay (Melanoma)
[10] = tested on: UACC-62; experiment: SRB cytotoxicity screening assay (Melanoma)
[11] = tested on: SF-539; experiment: SRB cytotoxicity screening assay (CNS Cancer); details: Homo sapiens, SF-539, 48 h, read-out: Log10 GI50 (converted)
[12] = tested on: U251; experiment: SRB cytotoxicity screening assay (CNS Cancer)
[13] = tested on: HCC-2998; experiment: SRB cytotoxicity screening assay (Colon Cancer); details: HCC-2998 (Colon Cancer); PG=0; 48 hour incubation
[14] = tested on: KM12; experiment: SRB cytotoxicity screening assay (Colon Cancer)
[15] = tested on: SW-620; experiment: SRB cytotoxicity screening assay (Colon Cancer)
[16] = tested on: 786-0; experiment: SRB cytotoxicity screening assay (Renal Cancer)
[17] = tested on: TK-10; experiment: SRB cytotoxicity screening assay (Renal Cancer)
[18] = tested on: MCF7; experiment: SRB cytotoxicity screening assay (Breast Cancer); details: Homo sapiens, MCF7, 48 h
[19] = tested on: MCF7/ADR-RES; experiment: SRB cytotoxicity screening assay (Breast Cancer)
[20] = tested on: MDA-MB-231/ATCC; experiment: SRB cytotoxicity screening assay (Breast Cancer)
[21] = tested on: DU-145; experiment: SRB cytotoxicity screening assay (Prostate Cancer)
[22] = tested on: EKVX; experiment: SRB cytotoxicity screening assay (Non-Small Cell Lung Cancer); details: Homo sapiens, EKVX, 48 h, read-out: Log10 LC50 (converted)
[23] = tested on: HOP-62; experiment: as above
[24] = tested on: NCI-H226; experiment: as above; details: Homo sapiens, NCI-H226, 48 h, read-out: Log10 LC50 (converted)
[25] = tested on: NCI-H522; experiment: as above; details: NCI-H522 (Non-Small Cell Lung Cancer); PG=0; 48 hour incubation

## CC(=O)O[C@H]1C(=O)[C@@]2(C)[C@H]([C@H](OC(=O)c3ccccc3)[C@]3(O)C[C@H](OC(=O)[C@H](O)[C@@H](NC(=O)c4ccccc4)c4ccccc4)C(C)=C1C3(C)C)[C@]1(OC(C)=O)CO[C@@H]1C[C@@H]2O [Paclitaxel, paclitaxel, reference compound]
[1]; read-out: Mean IC50 (26 cell line Mean Growth inhibition IC50 value)
  IC50: 0.02 µg/mL (≈ 0.0234 µM)
[1]; read-out: Min IC50 (lowest observed IC50 value in 26 cell line screen)
  IC50: 0.001 µg/mL (≈ 0.00117 µM)
[2]
  Log10 TGI: >−4.53 molar
[3]
  Log10 TGI: −4.65 molar
[4]
  GI50: 0.00269 nM
[5]
  Log10 TGI: >−4.00 molar
[5]; listed as paclitaxel
  Log10 TGI: greater than −4.00 molar
[5]; Homo sapiens, CCRF-CEM, 48 h, read-out: Log10 GI50 (converted)
  GI50: 0.00245 nM
[6]; Homo sapiens, OVCAR-4, 48 h, read-out: Log10 GI50 (converted)
  GI50: 1580 nM
[6]; OVCAR-4 (Ovarian), PG=0, 48 hour incubation
  Log10 TGI: −4.19 molar
[7]; Homo sapiens, MOLT-4, 48 h, read-out: Log10 GI50 (converted)
  GI50: 0.00851 nM
[7]; Homo sapiens, MOLT-4, 48 h, read-out: Log10 LC50 (converted)
  CC50: > 100000 nM
[7]; MOLT-4 (Leukemia), PG=0, 48 hour incubation
  Log10 TGI: >−4.00 molar
[8]
  Log10 TGI: −4.46 molar
[9]; Homo sapiens, M14, 48 h, read-out: Log10 GI50 (converted)
  GI50: 0.00186 nM
[9]; M14 (Melanoma), PG=0, 48 hour incubation
  Log10 TGI: −4.62 molar
[10]; Homo sapiens, UACC-62, 48 h, read-out: Log10 GI50 (converted)
  GI50: 0.0347 nM
[10]; UACC-62 (Melanoma), PG=0, 48 hour incubation
  Log10 TGI: −4.71 molar
[11]
  GI50: 0.00813 nM
[12]; Homo sapiens, U-251, 48 h, read-out: Log10 GI50 (converted)
  GI50: 0.00513 nM
[12]; U251 (CNS Cancer), PG=0, 48 hour incubation
  Log10 TGI: −4.32 molar
[13]
  Log10 TGI: −4.77 molar
[14]; Homo sapiens, KM12, 48 h, read-out: Log10 GI50 (converted)
  GI50: 0.00372 nM
[14]; KM12 (Colon Cancer), PG=0, 48 hour incubation
  Log10 TGI: −4.36 molar
[15]; Homo sapiens, SW-620, 48 h, read-out: Log10 GI50 (converted)
  GI50: 0.00251 nM
[15]; SW-620 (Colon Cancer), PG=0, 48 hour incubation
  Log10 TGI: >−4.00 molar
[16]; 786-0 (Renal Cancer), PG=0, 48 hour incubation
  Log10 TGI: >−4.00 molar
[16]; Homo sapiens, 786-0, 48 h, read-out: Log10 GI50 (converted)
  GI50: 9.77 nM
[16]; Homo sapiens, 786-0, 48 h, read-out: Log10 LC50 (converted)
  CC50: > 100000 nM
[17]; Homo sapiens, TK-10, 48 h, read-out: Log10 GI50 (converted)
  GI50: 12.9 nM
[17]; Homo sapiens, TK-10, 48 h, read-out: Log10 LC50 (converted)
  CC50: > 100000 nM
[17]; TK-10 (Renal Cancer), PG=0, 48 hour incubation
  Log10 TGI: >−4.00 molar
[18]; read-out: Log10 GI50 (converted)
  GI50: 0.00204 nM
[18]; read-out: Log10 LC50 (converted)
  CC50: > 100000 nM
[19]; Homo sapiens, MCF7, 48 h, read-out: Log10 GI50 (converted)
  GI50: 3.31 nM
[19]; Homo sapiens, MCF7, 48 h, read-out: Log10 LC50 (converted)
  CC50: > 100000 nM
[19]; MCF7/ADR-RES (Breast Cancer), PG=0, 48 hour incubation
  Log10 TGI: >−4.00 molar
[20]; Homo sapiens, MDA-MB-231, 48 h, read-out: Log10 GI50 (converted)
  GI50: 2.88 nM
[20]; Homo sapiens, MDA-MB-231, 48 h, read-out: Log10 LC50 (converted)
  CC50: 51300 nM
[20]; MDA-MB-231/ATCC (Breast Cancer), PG=0, 48 hour incubation
  Log10 TGI: −4.84 molar
[21]; DU-145 (Prostate Cancer), PG=0, 48 hour incubation
  Log10 TGI: >−4.00 molar
[21]; Homo sapiens, DU-145, 48 h, read-out: Log10 GI50 (converted)
  GI50: 0.417 nM
[21]; Homo sapiens, DU-145, 48 h, read-out: Log10 LC50 (converted)
  CC50: > 100000 nM
[22]
  CC50: > 100000 nM
[23]; HOP-62 (Non-Small Cell Lung Cancer), PG=0, 48 hour incubation
  Log10 TGI: −4.80 molar
[23]; Homo sapiens, HOP-62, 48 h, read-out: Log10 GI50 (converted)
  GI50: 0.214 nM
[23]; Homo sapiens, HOP-62, 48 h, read-out: Log10 LC50 (converted)
  CC50: 89100 nM
[24]
  CC50: > 100000 nM
[25]
  Log10 TGI: −11.20 molar
